Key:
[1] = system: Leptosphaeria nodorum; assay: Leptosphaeria nodorum test (wheat)/protective; type: in vivo, Leptosphaeria nodorum on wheat; conditions: evaluation 10 days after inoculation
Protocol: Leptosphaeria nodorum Test (Wheat)/Protective • Solvent: 50 parts by weight of N,N-dimethylacetamide • Emulsifier: 1 part by weight of alkylaryl polyglycol ether To produce a suitable preparation of active compound, 1 part by weight of active compound is mixed with the stated amounts of solvent and emulsifier, and the concentrate is diluted with water to the desired concentration. To test for protective activity, young plants are sprayed with the active compound preparation at the stated application rate. After the spray coating has dried on, the plants are sprayed with a spore suspension of Leptosphaeria nodorum. The plants remain in an incubation cabin at 20° C. and 100% relative atmospheric humidity for 48 hours. The plants are placed in a greenhouse at a temperature of about 20° C. and a relative atmospheric humidity of 80%. Evaluation is carried out 10 days after the inoculation. Here, 0% means an efficacy which corresponds to that of the control, whereas an efficacy of 100% means that no infection is observed.

[2] = system: Rhizoctonia solani; assay: Rhizoctonia solani test (in vitro)/microtitre plates; type: cell-based; conditions: 120 h, application rate 0.1 ppm, 5 days incubation, PDB medium, read-out: % efficacy
Protocol: Rhizoctonia solani Test (In Vitro)/Microtitre Plates The microtest is carried out in microtitre plates using Potato Dextrose Broth (PDB) as liquid test medium. The active compounds are used as technical-grade a.i., dissolved in methanol. For inoculation, a mycelium suspension of Rhizoctonia solani is used. After 5 days of incubation in the dark and with shaking (10 Hz), the transparency of each filled cavity of the microtitre plates is determined with the aid of a spectrophotometer. Here, 0% means an efficacy which corresponds to the growth in the controls, whereas an efficacy of 100% means that no fungal growth is observed.

[3] = system: Pyrenophora teres; assay: Pyrenophora teres test (barley)/protective; type: in vivo, Pyrenophora teres on barley; conditions: 62.5 g/ha; evaluation 10 days after inoculation
Protocol: Pyrenophora teres Test (Barley)/Protective • Solvent: 50 parts by weight of N,N-dimethylacetamide • Emulsifier: 1 part by weight of alkylaryl polyglycol ether To produce a suitable preparation of active compound, 1 part by weight of active compound or active compound combination is mixed with the stated amounts of solvent and emulsifier, and the concentrate is diluted with water to the desired concentration, or a commercial formulation of active compound or active compound combination is diluted with water to the desired concentration. To test for protective activity, young plants are sprayed with the active compound preparation at the stated application rate. After the spray coating has dried on, the plants are sprayed with a conidia suspension of Pyrenophora teres. The plants remain in an incubation cabin at 20° C. and 100% relative atmospheric humidity for 48 hours. The plants are then placed in a greenhouse at a temperature of about 20° C. and a relative atmospheric humidity of about 80%. Evaluation is carried out 10 days after the inoculation. Here, 0% means an efficacy which corresponds to that of the control, whereas an efficacy of 100% means that no infection is observed.

SMILES	Efficacy in % found ([1]; 62.5 g/ha) [%]	Emax at 0.1 ppm [2] [%]	Efficacy in % found [3] [%]	Efficacy in % found ([1]; 125 g/ha) [%]
CC(C)(C)C(O)(CCc1ccc(Cl)cc1)Cn1cncn1 (racemic) [Tebuconazole, (RS)-1-p-chlorophenyl-4,4-dimethyl-3-(1H-1,2,4-triazol-1-ylmethyl)-pentan-3-ol]	56	13		
Cc1nn(C)c(F)c1C(=O)Nc1ccccc1C(C)CC(C)C (stereo not shown) [(I), N-[2-(1,3-Dimethylbutyl)phenyl]-5-fluoro-1,3-dimethyl-1H-pyrazole-4-carboxamide]	0		67	
OC(Cc1ccccc1Cl)(Cn1nc[nH]c1=S)C1(Cl)CC1 (stereo not shown) [(II) Prothioconazole, prothioconazole]			44	
COCC(=O)N(c1c(C)cccc1C)C(C)C(=O)OC (stereo not shown) [(III) Metalaxyl, metalaxyl]			0	11

— patent publication US8658564B2, “Fungicide active ingredient combinations” (Bayer Cropscience AG, priority 2007, dated 2014)
